# Data from patent US20220185791A1, “POLYMORPHS OF A CARDIAC TROPONIN ACTIVATOR” (Amgen Inc., priority 2019, published 2022).
# Experiments:
# [1] = Solubility in water (excess solid, UPLC-UV); type: physicochemical; details: thermodynamic from solid, room temperature
# Source text: Suspensions were filtered.
# [2] = Solid stability (UPLC; XRPD, DSC, TGA); type: physicochemical; details: 5 weeks at 25° C./60% RH, 40° C./75% RH, 40° C./ambient or 60° C./ambient
# Procedure: Drug substance was stored at 25° C./60% RH, 40° C./75% RH, 40° C./ambient or 60° C./ambient conditions. Chemical stability was determined at each time point by dissolving the drug substance in 50% acetonitrile water for ultra performance liquid chromatography (“UPLC”) analysis. Physical stability was determined by analyzing the solid by XRPD, DSC and TGA.
compound,measurement,setting,value
"CS(=O)(=O)c1cncc(C(=O)N2[C@@H](C(=O)N[C@@H](c3cc(F)c(Cl)cc3F)C3CC3)C[C@H]3C[C@H]32)c1 [Form I, (1R,3R,5R)-N-((R)-(4-chloro-2,5-difluorophenyl)(cyclopropyl)methyl)-2-(5-(methylsulfonyl)nicotinoyl)-2-azabicyclo[3.1.0]hexane-3-carboxamide]",solubility,[1],9 µg/mL
same,Physical and chemical stability on storage,[2],physically and chemically stable
